# Experimental data reported in publication PMC9022420 (Scientific Reports, 2022).
# What was measured:
# E. coli BL21(DE3) = experiment: Photodynamic inactivation of E. coli (CFU counting); type: cell-based
# Description: After an overnight aerobic culture in LB broth at 37 °C with shaking at 225 rpm, the resulting E. coli were centrifuged at 2,500 rpm for 10 min. The pellet was resuspended in PBS (Sigma, 1x, pH 7.4) to an OD600 value of 0.6 (~ 1 × 10^8 bacteria per ml). […] Aliquots of negative controls (0.5% DMSO in PBS; PBS only) and 100 μM flavin-bacteria samples were covered in foil to remain in dark, while all samples were plated onto a 96-well plate and exposed to white LED irradiation (1 × 10^5 lx) for 15 min. After 15 min of irradiation or darkness, each sample was serially diluted to its respective, appropriate dilution and plated onto an LB agar plate with 50 μg/mL kanamycin. Plates were incubated overnight at 37 °C in the dark. Survival of bacteria was determined by counting colony forming units (CFUs) the next day.
# For time point data, aliquots of 100 μM flavin-bacteria solutions were taken at 5-min increments of irradiation (0, 5, 10, and 15 min) and evaluated similarly as above. Time point experiment with one-minute increments, between 0 and 5 min, were conducted for 100 μM F4-bacteria samples.
# [1] = tested on: murine hepatitis virus A59 strain (MHV-A59); experiment: Photodynamic inactivation of MHV-A59 (TCID50 assay in 17Cl-1 cells); type: cell-based
# Description: The efficacy of the flavins were enumerated utilizing modified methods from ISO 18,184 and Leibowitz et al.[56] […] 100 µM working stock solutions were then created by diluting each DMSO solution into PBS. To control for the effect of DMSO on MHV-A59, DMSO was diluted into PBS at the same concentration. A white light apparatus was set up to cover a 4 × 5 (row x column) area of a 96-well plate with the same level of light intensity (1 × 10^5 lx). The stock solutions were then diluted in replicates of four to a total of 180 µl in PBS at 1, 5, and 10 µM concentrations for each sample. Virus stocks of MHV-A59 were thawed on ice prior to use. 20 µl of MHV-A59 stock (1.4 × 10^9 PFU/ml) was then mixed into each well, and the 4 × 5 well matrix was treated with the light or incubated in the dark at room temperature for a specified time (5, 10, or 15 min).
# After treatment, the samples were mixed into 320 µl of Gibco Difco™ Beef Extract (1.5% w/v beef extract in ddH2O; Life Technologies) and rolled for 15 min to chelate any free ions in the solution. The samples then were serially diluted (10^0–10^–7) in infectivity media (Dulbecco’s modified Eagle’s medium low glucose 1 g/L (DMEM, Life Technologies) supplemented with 2.5% fetal bovine serum (Merck), 3% tryptose phosphate broth (Merck), 1 × non-essential amino acids (Gibco), 1 × antibiotic–antimycotic (Thermo Fisher Scientific) and 1 × L-Glutamine (Gibco]) and added in triplicate to 17Cl-1 cell plates. For each sample or control there were 4 replicate treatments (in light or dark); each treatment replicate was plated in triplicate. Infected 17Cl-1 plates were incubated at 37 °C in a 5% CO2 atmosphere for 24 h. Plates were scored for cytopathic effect (CPE) by microscopy and viral titres were determined by the Reed and Muench 50% tissue culture infectious dose (TCID50) end point method. Outliers were removed from the four replicates using an outlier test. The full protocol was repeated in triplicate on different days to account for any variability in the assay.
# WI-38 cells [2] = experiment: 24 h MTS cytotoxicity assay, WI-38; type: cell-based; conditions: Homo sapiens, 24 h incubation, dark
# Description: (§1) The MTS tetrazolium compound is reduced by cells into a coloured formazan product which is soluble in cell culture media. It can be detected colorimetrically between 450 and 540 nm with the measured absorbance directly proportional to the amount of metabolically active cells in culture. Cells were seeded into clear 96-well plates containing 10,000 cells/well in 100 µL complete growth medium and cultured for 24 h at 37 °C and 5% CO2. […] After further 24 h incubation at 37 °C and 5% CO2, 20 µL of CelTiter 96® AQueous One Solution (Promega) was added into each well and incubated at 37 °C, 5% CO2 for 1–4 h, according to the manufacturer’s instruction. The absorbance of each well was measured at 490 nm using a plate reader (Spark, Tecan). Control measurements included negative control of cells with DMEM, cells with DMEM containing 0.1% DMSO, cell-free culture media (blank) and cell-free sample dilutions in culture media to evaluate potential sample interferences with MTS assay. All experiments were conducted in biological triplicates. The percentage cell viability was calculated according to Eq. (1):1 Cell viability(%)=100×Absorbanceoftreatedcells-Absorbanceofblank/Absorbanceofcontrol-Absorbanceofblank
# pDNA (pUC18) = experiment: pDNA photocleavage, agarose gel electrophoresis; type: biochemical; conditions: 10 µM flavin, 15 min white LED, PBS 0.1% DMSO
# Description: (§2) A 20 µL aliquot was taken after 15 min of white LED irradiation (1 × 10^5 lx). Prior to loading, 2 µL of 6X Orange-G loading dye in glycerol were added to the aliquot and mixed vigorously. The gel was electrophoresed at 80 V for 35 min with 1% agarose gels in 1X Tris–acetate-EDTA (TAE) buffer. Gels were then imaged in a Syngene G:BOX Gel Documentation System and band % quantification was performed using ImageJ Gel Analyzer.
# [3] = Flavin photostability in PBS under white LED irradiation; type: physicochemical; conditions: 30 min, 100 µM, pH 7.4
# Text: After successful synthesis and initial characterisation, we monitored the photostability of the compounds in PBS (1x, pH 7.4) which was used for PDI assays as distilled or ultrapure water destabilises bacterial cells and coronaviruses through osmotic pressures[37],[38], thereby augmenting inactivation results. […] This yields lumichrome as the major degradation product which can only act as a PS under UV-irradiation[40]. […] However, it appears that guanidino substitution in our case improves the photostability.
# Figure S4: (A) Flavin photostability (100 µM) in PBS (0.1% DMSO) irradiated with 1x105 lx (35 mW/cm2) where A
# = Abs at 450 nm and A0 = Abs at 450 nm at 0 min.
# photostability. Experiments were performed using a quartz cuvette and measured using an Agilent Cary 300
# (1 picture or pasted object on this page, not shown here)
# [4] = tested on: ssRNA (EGFP-encoding mRNA, ~ 1 k nt); experiment: ssRNA photocleavage, agarose gel electrophoresis; type: biochemical; conditions: 10 µM flavin, 15 min white LED, PBS 0.1% DMSO
# Description: as §2
# 17Cl-1 cells = experiment: 24 h MTS cytotoxicity assay, 17Cl-1; type: cell-based, murine; conditions: Mus musculus, 24 h incubation, dark
# Description: as §1
# WI-38 cells [5] = experiment: Light-induced toxicity towards WI-38 cells (MTS); type: cell-based, human; conditions: 10 μM flavin, 15 min irradiation 1 × 10^5 lx
# Description: An adapted method reported by Maisch et al. was used to conduct phototoxicity studies on human lung fibroblasts, WI-38[28]. Cells were seeded into 96-well plates containing 10,000 cells/well in 100 µL complete growth medium and cultured for 24 h at 37 °C and 5% CO2. […] The resulting mixtures were then incubated in the dark for 5 min and then either illuminated with 1 × 10^5 lx for 5, 10 or 15 min, or incubated further in the dark for 15 min (dark control). After irradiation, the flavin solutions were removed and 100 μL of DMEM with 10% FBS and without phenol red was added to each well and incubated over night at 37 °C and 5% CO2. Subsequently, 20 µL of MTS reagent was added into each well and incubated at 37 °C and 5% CO2 for 1–4 h and the absorbance of each well was measured at 490 nm using a plate reader. Control measurements included negative control untreated cells with light and in the dark containing 0.1% DMSO and cells treated with flavins for 15 min in the dark. All experiments were conducted in biological triplicates. The percentage cell viability was calculated according to Eq. (1).
# [6] = 5 µM flavin, 10 min irradiation
compound,measurement,setting,value
"Cc1cc2nc3c(=O)[nH]c(=O)nc-3n(C[C@H](O)[C@H](O)[C@H](O)CO)c2cc1C [Riboflavin, reference compound]",E. coli log10 reduction of CFUs,"E. coli BL21(DE3); 1 µM flavin, 15 min irradiation (31.5 J/cm^2)",0.2 log10
same,E. coli log10 reduction of CFUs,"E. coli BL21(DE3); 1 µM flavin, 15 min irradiation (31.5 J/cm^2), listed as riboflavin",no inactivation
same,E. coli log10 reduction of CFUs,"E. coli BL21(DE3); 10 µM flavin, 15 min irradiation",0.2 log10
same,E. coli log10 reduction of CFUs,"E. coli BL21(DE3); 100 µM flavin, 5 min irradiation (10.5 J/cm^2)",0.0 log10
same,E. coli log10 reduction of CFUs,"E. coli BL21(DE3); 100 µM flavin, 10 min irradiation",0.0 log10
same,E. coli log10 reduction of CFUs,"E. coli BL21(DE3); 100 µM flavin, 15 min irradiation",0.0 log10
same,E. coli log10 reduction of CFUs,"E. coli BL21(DE3); 100 µM flavin, 15 min irradiation, listed as riboflavin",no activity
same,MHV-A59 log10 reduction in viral titre,"[1]; 1 µM flavin, 10 min irradiation (21.0 J/cm^2)",1.2 log10
same,MHV-A59 log10 reduction in viral titre,[1]; [6],3.2 log10
same,MHV-A59 viral load reduction,[1]; [6],> 99.9%
same,MHV-A59 log10 reduction in viral titre,"[1]; 10 µM flavin, 5 min irradiation (10.5 J/cm^2)",2.7 log10
same,MHV-A59 log10 reduction in viral titre,"[1]; 10 µM flavin, 10 min irradiation",3.4 log10
same,MHV-A59 log10 reduction in viral titre,"[1]; 10 µM flavin, 15 min irradiation (31.5 J/cm^2)",3.7 log10
same,IC50,WI-38 cells [2],> 100 µM
same,% NC (nicked coiled pDNA after photocleavage),pDNA (pUC18),11%
same,photodecomposition / degradation,[3],80%
same,% cleaved ssRNA,[4],28%
same,IC50,17Cl-1 cells,> 100 µM
same,reduction in cell viability (light-induced toxicity),WI-38 cells [5],no decrease in cell viability
